# Data published in US3975529A, “Diebenzo(B,E)thiepines” (Roussel-UCLAF, priority 1974, dated 1976).
# How the values were obtained:
# Assay type in all cases: in vivo, mice
# [1] = test system: trembling and peripherical cholinergic manifestations provoked by tremorine; experiment: Antitremorine activity as a function of time (Table I); conditions: for antitremorine activity (in words): s.c. sesame oil, mice, Table I
# Description: The antagonism of the test compounds to the trembling and peripherical cholinergic manifestations provoked by tremorine [Everett et al, Science, Vol. 124 (1956), p. 79] was studied on mice.
# The products of Examples 2 and 3 were administered subcutaneously in sesame oil solution at doses of 200 and 400 mg/kg at a volume of 25 ml/kg to groups of 10 mice. The mice receied intraperitoneal injections of 20 mg/kg of tremorine either for 4 hours, one day, 2, 3 or 4 days after injection of the test product. […] The reactions (T-trembling; S-salivation; L-lacrymation) were noted 10, 20, 30 and 60 minutes after the tremorine injection and the percent of inhibition of the different reactions at the height of the effect after injection of tremorine were noted as a function of time.
# [2] = test system: trembling and peripherial cholinergic manifestations provoked by oxotremorine; experiment: Antioxotremorine activity: antagonism to the trembling and peripherial cholinergic manifestations (Table II)
# Description: The antagonism of the test products to the trembling and peripherial cholinergic manifestations provoked by oxotremorine [Cho et al, J. Biochem. Biophys. Res. Commun., Vol. 5, (196l) p. 276] was studied on mice. The product of Example 1 was administered subcutaneously in aqueous solution at doses of 50 and 100 mg/kg to groups of 10 mice and the products of Example 2 were subcutaneously administered in sesame oil solution at doses of 200 and 400 mg/kg to groups of 10 mice. Control animals received no vehicle. The mice then received a single intraperitoneal dose of 0.5 mg/kg of oxotremorine either 4 hours, 1 day, 2, 3, 4 or 7 days after the injection of the test product. The reaction of the animals as in Table I were recorded 5,10 and 15 minutes after the injection of oxotremorine and the percent of inhibition of the different reactions, at the height of the effect, after the oxotremorine injection was determined as a function of time.
# [3] = test system: antinociceptive activity of oxotremorine; experiment: Antagonism of antinociceptive activity of oxotremorine, hot plate (Table III)
# Description: The antinociceptive activity of oxotremorine [Leslie, J. Pharm. Pharmae., Vol. 2 (1969), p. 248-50] was determined on mice using the hot plate method of Eddy et al [J. Pharmacol. Vol. 107 (1953), p. 385] in the presence and absence of the test product presumed to be antagonistic. The product of Example 1 was administered subcutaneously in aqueous solution at doses of 50 and 100 mg/kg to groups of 10 mice and the products of Examples 2 to 5 were subcutaneously administered in sesame oil solution at doses of 200 and 400 mg/kg to groups of 10 mice. The mice then received a single intraperitoneal injection of 0.5 mg/kg of oxotremorine either 4 hours, 1 day, 2, 3, 4 or 7 days after the test product administration. For each time considerated, the mice were placed on the hot plate one half hour after the oxotremorine administration and the time for the appearance of nociceptive refluxes consistituted by simultaneous licking of the front paws was noted. The maximum time of staying on the hot plate was fixed at 45 seconds and the percentage of animals with a reaction time (RT) less than 40 seconds in spite of oxotremorine administration was determined.
# [4] = 200 mg/kg s.c. sesame oil, after 4 h
# [5] = 200 mg/kg s.c. sesame oil, after 1 d
# [6] = 200 mg/kg s.c. sesame oil, after 2 d
# [7] = 200 mg/kg s.c. sesame oil, after 3 d
# [8] = 200 mg/kg s.c. sesame oil, after 4 d
# [9] = 400 mg/kg s.c. sesame oil, after 4 h
# [10] = 400 mg/kg s.c. sesame oil, after 1 d
# [11] = 400 mg/kg s.c. sesame oil, after 2 d
# [12] = 400 mg/kg s.c. sesame oil, after 3 d
# [13] = 400 mg/kg s.c. sesame oil, after 4 d
# [14] = 200 mg/kg s.c. sesame oil, after 7 d
# [15] = 400 mg/kg s.c. sesame oil, after 7 d
smiles,measurement,setting,value
"CCC(=O)OCCN1C2CCC1CC(=C1c3ccccc3CSc3ccccc31)C2 (racemic) [Example 2, dl N-(β-propionyloxyethyl)-11-(3'-nortropylidene)-6,11-dihydrodibenzo(b,e)thiepine]",% inhibition of reactions: L (lacrymation),[1]; [4],100%
same,% inhibition of reactions: S (salivation),[1]; [4],90%
same,% inhibition of reactions: T (trembling),[1]; [4],100%
same,% inhibition of reactions: L (lacrymation),[1]; [5],100%
same,% inhibition of reactions: S (salivation),[1]; [5],90%
same,% inhibition of reactions: T (trembling),[1]; [5],90%
same,% inhibition of reactions: L (lacrymation),[1]; [6],40%
same,% inhibition of reactions: S (salivation),[1]; [6],0%
same,% inhibition of reactions: T (trembling),[1]; [6],0%
same,% inhibition of reactions: L (lacrymation),[1]; [7],100%
same,% inhibition of reactions: S (salivation),[1]; [7],50%
same,% inhibition of reactions: T (trembling),[1]; [7],20%
same,% inhibition of reactions: L (lacrymation),[1]; [8],60%
same,% inhibition of reactions: S (salivation),[1]; [8],0%
same,% inhibition of reactions: T (trembling),[1]; [8],0%
same,% inhibition of reactions: L (lacrymation),[1]; [9],100%
same,% inhibition of reactions: S (salivation),[1]; [9],100%
same,% inhibition of reactions: T (trembling),[1]; [9],100%
same,% inhibition of reactions: L (lacrymation),[1]; [10],100%
same,% inhibition of reactions: S (salivation),[1]; [10],100%
same,% inhibition of reactions: T (trembling),[1]; [10],100%
same,% inhibition of reactions: L (lacrymation),[1]; [11],100%
same,% inhibition of reactions: S (salivation),[1]; [11],70%
same,% inhibition of reactions: T (trembling),[1]; [11],40%
same,% inhibition of reactions: L (lacrymation),[1]; [12],100%
same,% inhibition of reactions: S (salivation),[1]; [12],20%
same,% inhibition of reactions: T (trembling),[1]; [12],10%
same,% inhibition of reactions: L (lacrymation),[1]; [13],60%
same,% inhibition of reactions: S (salivation),[1]; [13],90%
same,% inhibition of reactions: T (trembling),[1]; [13],50%
same,antitremorine activity (in words),[1],prolonged antitremorine activity
same,% inhibition of reactions: L (lacrymation),[2]; [4],100%
same,% inhibition of reactions: S (salivation),[2]; [4],80%
same,% inhibition of reactions: T (trembling),[2]; [4],80%
same,% inhibition of reactions: L (lacrymation),[2]; [5],100%
same,% inhibition of reactions: S (salivation),[2]; [5],90%
same,% inhibition of reactions: T (trembling),[2]; [5],100%
same,% inhibition of reactions: L (lacrymation),[2]; [6],70%
same,% inhibition of reactions: S (salivation),[2]; [6],30%
same,% inhibition of reactions: T (trembling),[2]; [6],30%
same,% inhibition of reactions: L (lacrymation),[2]; [7],30%
same,% inhibition of reactions: S (salivation),[2]; [7],10%
same,% inhibition of reactions: T (trembling),[2]; [7],0%
same,% inhibition of reactions: L (lacrymation),[2]; [8],11%
same,% inhibition of reactions: S (salivation),[2]; [8],0%
same,% inhibition of reactions: L (lacrymation),[2]; [14],10%
same,% inhibition of reactions: S (salivation),[2]; [14],0%
same,% inhibition of reactions: T (trembling),[2]; [14],0%
same,% inhibition of reactions: L (lacrymation),[2]; [9],100%
same,% inhibition of reactions: S (salivation),[2]; [9],100%
same,% inhibition of reactions: T (trembling),[2]; [9],100%
same,% inhibition of reactions: L (lacrymation),[2]; [10],100%
same,% inhibition of reactions: S (salivation),[2]; [10],100%
same,% inhibition of reactions: T (trembling),[2]; [10],100%
same,% inhibition of reactions: L (lacrymation),[2]; [11],80%
same,% inhibition of reactions: S (salivation),[2]; [11],60%
same,% inhibition of reactions: T (trembling),[2]; [11],70%
same,% inhibition of reactions: L (lacrymation),[2]; [12],10%
same,% inhibition of reactions: S (salivation),[2]; [12],20%
same,% inhibition of reactions: T (trembling),[2]; [12],0%
same,% inhibition of reactions: L (lacrymation),[2]; [13],67%
same,% inhibition of reactions: S (salivation),[2]; [13],20%
same,% inhibition of reactions: T (trembling),[2]; [13],20%
same,% inhibition of reactions: L (lacrymation),[2]; [15],20%
same,% inhibition of reactions: S (salivation),[2]; [15],20%
same,% inhibition of reactions: T (trembling),[2]; [15],10%
same,antioxotremorine activity (in words),"[2]; s.c. sesame oil, mice, Table II",prolonged antioxotremorine activity
same,% of animals with a RT less than 40 seconds,[3]; [4],100%
same,% of animals with a RT less than 40 seconds,[3]; [5],100%
same,% of animals with a RT less than 40 seconds,[3]; [6],90%
same,% of animals with a RT less than 40 seconds,[3]; [7],50%
same,% of animals with a RT less than 40 seconds,[3]; [8],60%
same,% of animals with a RT less than 40 seconds,[3]; [14],30%
same,% of animals with a RT less than 40 seconds,[3]; [9],100%
same,% of animals with a RT less than 40 seconds,[3]; [10],100%
same,% of animals with a RT less than 40 seconds,[3]; [11],100%
same,% of animals with a RT less than 40 seconds,[3]; [12],80%
same,% of animals with a RT less than 40 seconds,[3]; [13],90%
same,% of animals with a RT less than 40 seconds,[3]; [15],20%
"CCCCCCC(=O)OCCN1C2CCC1CC(=C1c3ccccc3CSc3ccccc31)C2 (racemic) [Example 3, dl N-(β-heptanoyloxyethyl)-11-(3'-nortropylidene)-6,11-dihydrodibenzo(b,e)thiepine]",% inhibition of reactions: L (lacrymation),[1]; [4],90%
same,% inhibition of reactions: S (salivation),[1]; [4],30%
same,% inhibition of reactions: T (trembling),[1]; [4],40%
same,% inhibition of reactions: L (lacrymation),[1]; [5],30%
same,% inhibition of reactions: S (salivation),[1]; [5],20%
same,% inhibition of reactions: T (trembling),[1]; [5],0%
same,% inhibition of reactions: L (lacrymation),[1]; [6],100%
same,% inhibition of reactions: S (salivation),[1]; [6],10%
same,% inhibition of reactions: T (trembling),[1]; [6],100%
same,% inhibition of reactions: L (lacrymation),[1]; [7],20%
same,% inhibition of reactions: S (salivation),[1]; [7],0%
same,% inhibition of reactions: L (lacrymation),[1]; [8],0%
same,% inhibition of reactions: S (salivation),[1]; [8],10%
same,% inhibition of reactions: T (trembling),[1]; [8],20%
same,antitremorine activity (in words),[1],prolonged antitremorine activity
same,% of animals with a RT less than 40 seconds,[3]; [4],50%
same,% of animals with a RT less than 40 seconds,[3]; [5],60%
same,% of animals with a RT less than 40 seconds,[3]; [6],50%
same,% of animals with a RT less than 40 seconds,[3]; [7],50%
same,% of animals with a RT less than 40 seconds,[3]; [8],40%
same,% of animals with a RT less than 40 seconds,[3]; [14],40%
same,% of animals with a RT less than 40 seconds,[3]; [9],70%
same,% of animals with a RT less than 40 seconds,[3]; [10],40%
same,% of animals with a RT less than 40 seconds,[3]; [11],50%
same,% of animals with a RT less than 40 seconds,[3]; [12],30%
same,% of animals with a RT less than 40 seconds,[3]; [13],40%
same,% of animals with a RT less than 40 seconds,[3]; [15],20%
